Columns and labels:
[1] = Half life in dog at 2.7 mg/kg, po; format: ADME, organism-based, Canis lupus familiaris; parameters: dose 2.7 mg/kg, route oral; details: in vivo
Macaca fascicularis = test: Half life in monkey at 0.93 mg/kg, iv; details: cynomolgus monkey, in vivo
[2] = Volume of distribution at steady state in dog at 0.90 mg/kg, iv and 2.7 mg/kg, po; format: ADME, organism-based, Canis lupus familiaris; details: in vivo, 0.9 mg/kg, read-out: Vdss
[3] = AUC in dog at 2.7 mg/kg, po; format: ADME, organism-based, Canis lupus familiaris; parameters: dose 2.7 mg/kg, route oral; details: plasma
[4] = Half life in dog at 0.90 mg/kg, iv; format: ADME, organism-based, Canis lupus familiaris; parameters: dose 0.9 mg/kg, route intravenous; details: in vivo, 0.9 mg/kg
[5] = Oral bioavailability in dog at 2.7 mg/kg, po; format: ADME, organism-based, Canis lupus familiaris; details: in vivo
[6] = Clearance in dog at 0.90 mg/kg, iv and 2.7 mg/kg, po; format: ADME, organism-based, Canis lupus familiaris; details: in vivo, 0.9 mg/kg
[7] = Half life in human liver microsomes by LC/MS analysis; format: ADME, Microsome
[8] = Half life in rat liver microsomes by LC/MS analysis; format: ADME, Microsome
[9] = Half life in monkey at 2.1 mg/kg, po; format: ADME, organism-based, Macaca mulatta; parameters: dose 2.1 mg/kg, route oral; details: rhesus monkey, in vivo
[10] = Half life in monkey at 1.6 mg/kg, iv; format: ADME, organism-based, Macaca mulatta; parameters: dose 1.6 mg/kg, route intravenous; details: rhesus monkey, in vivo
[11] = Oral bioavailability in monkey at 2.1 mg/kg; format: ADME, organism-based, Macaca mulatta; details: rhesus monkey, in vivo
[12] = AUC in monkey at 2.1 mg/kg, po; format: ADME, organism-based, Macaca mulatta; parameters: dose 2.1 mg/kg, route oral; details: rhesus monkey, plasma
[13] = Volume of distribution at steady state in monkey at 1.6 mg/kg, iv and 2.1 mg/kg, po; format: ADME, organism-based, Macaca mulatta; details: rhesus monkey, in vivo, read-out: Vdss
[14] = AUC in rat at 14 mg/kg, po; format: ADME, organism-based; parameters: dose 14 mg/kg, route oral; details: plasma
[15] = Half life in rat at 14 mg/kg, po; format: ADME, organism-based; parameters: dose 14 mg/kg, route oral; details: in vivo
[16] = Oral bioavailability in rat at 14 mg/kg; format: ADME, organism-based; details: in vivo
[17] = Half life in rat at 0.71 mg/kg, iv; format: ADME, organism-based; parameters: dose 0.71 mg/kg, route intravenous; details: in vivo
[18] = Volume of distribution at steady state in rat at 0.71 mg/kg, iv and 14 mg/kg, po; format: ADME, organism-based; details: in vivo, read-out: Vdss
[19] = Oral bioavailability in rat at 10 mg/kg; format: ADME, organism-based; details: in vivo
[20] = AUC in rat at 10 mg/kg, po; format: ADME, organism-based; parameters: dose 10 mg/kg, route oral; details: plasma
[21] = Half life in rat at 2 mg/kg, iv; format: ADME, organism-based; parameters: dose 2 mg/kg, route intravenous; details: in vivo
[22] = Half life in dog at 1 mg/kg, iv; format: ADME, organism-based, Canis lupus familiaris; parameters: dose 1 mg/kg, route intravenous; details: in vivo
[23] = Oral bioavailability in dog at 3 mg/kg; format: ADME, organism-based, Canis lupus familiaris; details: in vivo
[24] = Half life in rat at 10 mg/kg, po; format: ADME, organism-based; parameters: dose 10 mg/kg, route oral; details: in vivo
[25] = AUC in dog at 3 mg/kg, po; format: ADME, organism-based, Canis lupus familiaris; parameters: dose 3 mg/kg, route oral; details: plasma
[26] = Volume of distribution at steady state in dog at 1 mg/kg, iv and 3 mg/kg, po; format: ADME, organism-based, Canis lupus familiaris; details: in vivo, read-out: Vdss
[27] = Half life in dog at 3 mg/kg, po; format: ADME, organism-based, Canis lupus familiaris; parameters: dose 3 mg/kg, route oral; details: in vivo
[28] = Volume of distribution at steady state in rat at 2 mg/kg, iv and 10 mg/kg, po; format: ADME, organism-based; details: in vivo, read-out: Vdss

Row | Structure (SMILES) | half-life [7] | half-life [8] | other results
1 | Cn1c(=O)cc(N2CCC[C@@H](N)C2)n(Cc2cc(F)ccc2C#N)c1=O.O=C(O)C(F)(F)F |  |  | half-life [1]: 4.8 h; half-life (Macaca fascicularis): 5.6 h; Vd [2]: 4.4 L/kg; AUC [3]: 2200 ng·h/mL; half-life [4]: 1.5 h; bioavailability [5]: 90%; clearance [6]: 18 mL/min/kg
2 | Cn1c(=O)cc(N2CCC[C@@H](N)C2)n(Cc2ccccc2Br)c1=O | > 3.33 h | 1.37 h | 
3 | Cn1c(=O)cc(N2CCC[C@@H](N)C2)n(Cc2cc(F)ccc2Br)c1=O | 1.5 h | 0.267 h | 
4 | N#Cc1ccccc1Cn1c(N2CCC[C@@H](N)C2)ncc(F)c1=O.O=C(O)C(O)C(O)C(=O)O [TARTARATE] |  |  | half-life [9]: 5.7 h; half-life [10]: 4 h; bioavailability [11]: 110%; AUC [12]: 3100 ng·h/mL; Vd [13]: 3.2 L/kg
5 | Cn1c(=O)cc(N2CCC[C@@H](N)C2)n(Cc2cc(Cl)ccc2Cl)c1=O | 2.75 h | 0.167 h | 
6 | Cn1c(=O)cc(N2CCC[C@@](C)(N)C2)n(Cc2cc(F)ccc2C#N)c1=O | > 3.33 h | 0.583 h | 
7 | N#Cc1ccccc1Cn1c(N2CCC[C@@H](N)C2)ncc(F)c1=O.O=C(O)C(F)(F)F |  |  | AUC [14]: 3800 ng·h/mL; half-life [15]: 1.5 h; bioavailability [16]: 73%; half-life [17]: 1.5 h; Vd [18]: 4.2 L/kg
8 | N#Cc1ccc(F)cc1Cn1c(N2CCC[C@@H](N)C2)ncc(Cl)c1=O | > 3.33 h | 2.03 h | 
9 | N#Cc1ccccc1Cn1c(N2CCC[C@@H](N)C2)ncc(-c2ccccc2)c1=O | 1.17 h | 0.0167 h | 
10 | N#Cc1ccccc1Cn1c(N2CCC[C@@H](N)C2)ncc(/C=C/c2ccc(F)cc2)c1=O | 3.1 h | > 3.33 h | 
11 | N#Cc1ccc(F)cc1Cn1c(N2CCC[C@@H](N)C2)ncc(Br)c1=O | > 3.33 h | 0.683 h | 
12 | Cc1nc(N2CCC[C@@H](N)C2)n(Cc2ccccc2C#N)c(=O)c1Br | > 3.33 h | 0.383 h | 
13 | N#Cc1ccccc1Cn1c(N2CCC[C@@H](N)C2)nc2c(c1=O)CCCC2 | 1.38 h | 0.1 h | 
14 | Cl.N#Cc1ccccc1Cn1c(N2CCC[C@@H](N)C2)ncc(Br)c1=O |  |  | bioavailability [19]: 74%; AUC [20]: 2400 ng·h/mL; half-life [21]: 1.1 h; half-life [22]: 5.3 h; bioavailability [23]: 105%; half-life [24]: 1.7 h; AUC [25]: 14700 ng·h/mL; Vd [26]: 1.7 L/kg; half-life [27]: 6.1 h; Vd [28]: 3.2 L/kg

Now from value to compound, other results behind:

Row | half-life [7] | half-life [8] | Structure (SMILES) | other results
15 | > 3.33 h | 3.32 h | N#Cc1ccccc1Cn1c(N2CCC[C@@H](N)C2)ncc(Cl)c1=O | 
16 | > 3.33 h | > 3.33 h | C#Cc1cnc(N2CCC[C@@H](N)C2)n(Cc2ccccc2C#N)c1=O | 
17 | > 3.33 h | 2.18 h | N#Cc1ccccc1Cn1c(N2CCC[C@@H](N)C2)nccc1=O | 
18 | 1.02 h | 1.18 h | N#Cc1ccccc1Cn1c(N2CCC[C@@H](N)C2)ncc(-c2cc[nH]c2)c1=O | 
19 | > 3.33 h | > 3.33 h | N#Cc1ccccc1Cn1c(N2CCC[C@@H](N)C2)ncc(C#CCO)c1=O | 
20 | > 3.33 h | > 3.33 h | CC#Cc1cnc(N2CCC[C@@H](N)C2)n(Cc2ccccc2C#N)c1=O | 
21 | > 3.33 h | > 3.33 h | N#Cc1ccccc1Cn1c(N2CCC[C@@H](N)C2)ncc(F)c1=O | 
22 | 2.68 h | 0.983 h | N#Cc1ccccc1Cn1c(N2CCC[C@@H](N)C2)ncc(I)c1=O | 
23 | 2.73 h | 0.1 h | C=Cc1cnc(N2CCC[C@@H](N)C2)n(Cc2ccccc2C#N)c1=O | 
